Measurements reported in US10266506B2, “Compounds for use in imaging, diagnosing and/or treatment of diseases of the central nervous system or of tumors” (PIRAMAL IMAGING SA, priority 2007, dated 2019).
Entries after “also recorded” stand apart in the source; their conditions may differ.

Assays:
[1] = Biodistribution in NMRI mice (gamma counter); format: in vivo
Experimental: For each time point 3 mice have been used. The mice were injected each with 0.178 MBq[^18F]compound 13. After the respective time points the mice were sacrificed, the organs taken out and measured in a gamma counter. The results were decay corrected.

MAO B = target: T1, MAO B (Homo sapiens, UniProt P27338); experiment: Autoradiography with [18F]compound 13 on human brain sections (Alzheimer's disease), blocking with MAO B inhibitors; format: binding
T1 construct: Autoradiography using [^18F]compound 13 on human brain slices from four brains from patients with diagnosis of Alzheimer's disease; from tissue; host or cells: human brain sections (Alzheimer's disease patients and normal controls), 18 µm cryosections
T1 sequence (P27338 1-520): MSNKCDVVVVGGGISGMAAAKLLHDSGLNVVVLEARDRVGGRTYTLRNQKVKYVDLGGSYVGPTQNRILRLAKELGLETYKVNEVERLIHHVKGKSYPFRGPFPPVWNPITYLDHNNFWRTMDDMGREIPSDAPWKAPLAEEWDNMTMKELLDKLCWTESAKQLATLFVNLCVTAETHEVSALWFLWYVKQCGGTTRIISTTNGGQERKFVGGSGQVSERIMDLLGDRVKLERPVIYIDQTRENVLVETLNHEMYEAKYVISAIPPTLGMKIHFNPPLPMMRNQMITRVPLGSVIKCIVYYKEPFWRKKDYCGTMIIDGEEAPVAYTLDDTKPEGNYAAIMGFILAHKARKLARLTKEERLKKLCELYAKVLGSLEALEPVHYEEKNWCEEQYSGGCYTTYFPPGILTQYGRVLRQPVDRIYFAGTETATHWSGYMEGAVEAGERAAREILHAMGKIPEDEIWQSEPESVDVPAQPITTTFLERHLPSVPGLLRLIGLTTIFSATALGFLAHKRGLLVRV
Experimental: (§1) Thereafter, the slides were removed and brought to room temperature. […] The sections were dipped two times into ice cold distilled water, dried at room temperature and exposed to PhosphorImanger plates (FUJI BAS 5000) over night. For detection of the specificity of the signals an excess (10 μM) of Deprenyl, Pargylin (both for MAO B) and Clorgyline (for MAO A), respectively, was used. After exposure, the sections were immunohistochemically stained using a standard protocol with an anti-GFAP antibody to detect reactive astrocytes. Amyloid β plaques were detected with BAY 949172 (Rowe C C et al. Lancet Neutol 2008; 7: 129-135) using the binding protocol as described above.
FIG. 1A Autoradiographic signal after exposure on the PhosphorImager plate.
FIG. 2A Autoradiographic signal after exposure on the PhosphorImager plate.

[2] = PET brain uptake (time activity curves, SUV) in a cynomolgus monkey; format: in vivo; settings: e.g. striatum
[3] = Plasma radioactivity and plasma metabolites after injection in a cynomolgus monkey; settings: compared with [11C]Deprenyl (and compound 5)
From the text: Plasma radioactivity profiles have been monitored over time. […] In addition, metabolites occurring in plasma over time have been monitored (FIGS. 8 and 9) for both ligands.

MAO A = target: T2, MAO A (Homo sapiens, UniProt P21397); experiment: Autoradiography with [18F]compound 13 on human brain sections, blocking with MAO A inhibitor clorgyline; format: binding; settings: human AD brain slices; excess (10 μM) of Clorgyline
T2 construct: Autoradiography using [^18F]compound 13 on human brain slices from four brains from patients with diagnosis of Alzheimer's disease; from tissue; host or cells: human brain sections (Alzheimer's disease patients), 18 µm cryosections
T2 sequence (P21397 1-527): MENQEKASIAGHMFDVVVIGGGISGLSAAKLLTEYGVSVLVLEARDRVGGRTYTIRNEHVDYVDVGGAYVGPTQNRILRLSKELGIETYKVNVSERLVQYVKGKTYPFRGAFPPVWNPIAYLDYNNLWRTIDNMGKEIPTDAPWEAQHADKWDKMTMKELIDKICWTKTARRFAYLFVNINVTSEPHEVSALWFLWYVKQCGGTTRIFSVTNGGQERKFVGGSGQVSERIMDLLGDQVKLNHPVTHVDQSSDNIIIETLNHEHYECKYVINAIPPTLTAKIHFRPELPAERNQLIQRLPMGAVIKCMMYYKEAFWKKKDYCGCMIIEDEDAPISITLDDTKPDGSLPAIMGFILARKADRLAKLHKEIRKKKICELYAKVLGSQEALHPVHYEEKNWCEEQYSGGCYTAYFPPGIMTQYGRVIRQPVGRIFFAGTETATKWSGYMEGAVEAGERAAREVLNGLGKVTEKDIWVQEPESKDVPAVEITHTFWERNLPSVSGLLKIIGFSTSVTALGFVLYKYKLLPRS
Experimental: as §1
FIG. 2A Autoradiographic signal after exposure on the PhosphorImager plate. Note the black dots in the tissue slices corresponding to areas with amyloid β plaques (see examples in FIG. 3).

[4] = literature report; cited from earlier work

Compound | brain uptake of radioactivity ([1]; 2 min p.i.) [% ID/g] | brain radioactivity ([1]; 30 min p.i.) [% ID/g] | brain radioactivity ([1]; after 4 hours) [% ID/g] | correspondence of autoradiographic signal to reactive astrocytes (MAO B; human AD brain slice, GFAP immunoreactivity) | relation of autoradiographic signal to amyloid β plaque load (MAO B; human AD brain slices, amyloid detected with BAY 949172) | blocking of autoradiographic signal by MAO B inhibitors (specificity for MAO B) (MAO B; human AD brain slices, excess (10 μM) of Deprenyl or Pargylin) | uptake and enrichment in specific regions, higher than [11C]Deprenyl [2] | in vivo metabolic stability [3] | blocking of autoradiographic signal by MAO A inhibitor clorgyline (MAO A) | degradation to metabolite (reported) [4]
C#CCN(C)[C@H](C[18F])Cc1ccccc1 [[^18F]compound 13, N-[(2S)-1-(^18F)fluoro-3-phenylpropan-2-yl]-N-methylprop-2-yn-1-amine] | 7.5±0.04 | 2.10±0.33 | 1.34±0.26 | correspondence of the autoradiographic signal to reactive astrocytes is demonstrated | the signal density and intensity corresponds with the amyloid β plaque load | the signals could be blocked with deprenyl and pargylin; also recorded: the signals could be completely blocked with deprenyl | about 10% | improved metabolic stability; also recorded: more stable than [^11C]Deprenyl | not with clorgyline | 
C#CCN(C)CCCCCC[18F] [compound 5] |  |  |  |  |  |  |  |  |  | degraded quickly towards a polar [^18F]-labelled metabolite
